Common to all, as to format: functional
One assay has as its system A549. In words: Cytotoxicity against human lung carcinoma A549 cell line.
Another assay has as its system B16-F10. In words: Cytotoxicity against mouse melanoma B16F10 cell line.
For a further assay, the system named is HT-29. In words: Cytotoxicity against human colon adenocarcinoma HT-29 cell line.
Another assay concerns P388. Nature of the assay: Cytotoxicity against mouse lymphocytic leukemia P388 cell line.
Assay [1] in a line: ED50 compared to that of taxol.

In the case of `CC(=O)O[C@H]1C(=O)[C@@]2(C)[C@H]([C@H](OC(=O)c3ccccc3)[C@]3(O)C[C@H](OC(=O)[C@H](O)[C@@H](NC(=O)c4ccccc4)c4ccccc4)C(C)=C1C3(C)C)[C@]1(OC(C)=O)CO[C@@H]1C[C@@H]2O` [PACLITAXEL], the Cytotoxicity with A549 came out at 4.3 ng/mL; in the assay on B16-F10, 6.3 ng/mL; with HT-29, 3.5 ng/mL; in the assay with P388, 11 ng/mL. Further, the Ratio in assay [1] stood at 1.
For `CC(=O)O[C@@H]1C2=C(C)[C@@H](OC(=O)[C@H](O)[C@@H](NC(=O)c3ccccc3)c3ccccc3)C[C@@](O)([C@@H](OC(=O)c3ccccc3)[C@@H]3[C@]4(OC(C)=O)CO[C@@H]4C[C@H](OCCO)[C@@]3(C)[C@H]1O)C2(C)C`, the Cytotoxicity in the assay on A549 turned out to be 39 ng/mL; in the assay with B16-F10, 119 ng/mL; with HT-29 it was 10 ng/mL; in the assay on P388, 170 ng/mL. For the same molecule, in assay [1], the Ratio was 1.77.
The like results for `CC(=O)O[C@@H]1C2=C(C)[C@@H](OC(=O)[C@H](O)[C@@H](NC(=O)c3ccccc3)c3ccccc3)C[C@@](O)([C@@H](OC(=O)c3ccccc3)[C@@H]3[C@]4(OC(C)=O)CO[C@@H]4C[C@@H]4OC(C)(C)O[C@@H]1[C@]43C)C2(C)C` were, in that order, 34 ng/mL, 34 ng/mL, 29 ng/mL, 42 ng/mL and 0.76.
In the same order, the values of `CC(=O)OCCO[C@H]1C[C@H]2OC[C@@]2(OC(C)=O)[C@H]2[C@H](OC(=O)c3ccccc3)[C@]3(O)C[C@H](OC(=O)[C@H](O)[C@@H](NC(=O)c4ccccc4)c4ccccc4)C(C)=C([C@@H](OC(C)=O)[C@H](O)[C@]12C)C3(C)C` are 120 ng/mL, 43 ng/mL, 31 ng/mL, 79 ng/mL and 2.47.
`CC(=O)O[C@@H]1C2=C(C)[C@@H](OC(=O)[C@H](O)[C@@H](NC(=O)c3ccccc3)c3ccccc3)C[C@@](O)([C@@H](OC(=O)c3ccccc3)[C@@H]3[C@]4(OC(C)=O)CO[C@@H]4C[C@H](O)[C@@]3(C)[C@H]1O)C2(C)C` (stereo in doubt; 2) [listing 1 of 2 here]: the Cytotoxicity is 22 ng/mL with A549, 25 ng/mL in the assay on B16-F10, 9.6 ng/mL with HT-29 and 57 ng/mL in the assay with P388.
As to `C=CCO[C@H]1C[C@H]2OC[C@@]2(OC(C)=O)[C@H]2[C@H](OC(=O)c3ccccc3)[C@]3(O)C[C@H](OC(=O)[C@H](O)[C@@H](NC(=O)c4ccccc4)c4ccccc4)C(C)=C([C@@H](OC(C)=O)[C@H](O)[C@]12C)C3(C)C`, the Cytotoxicity in the assay with A549 is 1 ng/mL; in the assay with B16-F10 it was 2.7 ng/mL; with HT-29, 1.2 ng/mL; in the assay with P388 it was 5.3 ng/mL. For the same molecule, the Ratio in assay [1] was determined as 1.4.
On to `CO[C@H]1[C@H](OC(C)=O)C2=C(C)[C@@H](OC(=O)[C@H](O)[C@@H](NC(=O)c3ccccc3)c3ccccc3)C[C@@](O)([C@@H](OC(=O)c3ccccc3)[C@@H]3[C@]4(OC(C)=O)CO[C@@H]4C[C@H](O)[C@]31C)C2(C)C`, for which the Cytotoxicity was found to be 4.7 ng/mL with A549, 4.8 ng/mL in the assay on B16-F10, 3.1 ng/mL in the assay with HT-29 and 7.8 ng/mL with P388. Moreover, the Ratio in assay [1] amounted to 1.74.
In the same order, the values of `CCN(CC)CCO[C@H]1C[C@H]2OC[C@@]2(OC(C)=O)[C@H]2[C@H](OC(=O)c3ccccc3)[C@]3(O)C[C@H](OC(=O)[C@H](O)[C@@H](NC(=O)c4ccccc4)c4ccccc4)C(C)=C([C@@H](OC(C)=O)[C@H](O)[C@]12C)C3(C)C` are 400 ng/mL, 110 ng/mL, 108 ng/mL, 310 ng/mL and 2.61.
In the same order, the values of `CC(=O)O[C@@H]1C2=C(C)[C@@H](OC(=O)[C@H](O)[C@@H](NC(=O)c3ccccc3)c3ccccc3)C[C@@](O)([C@@H](OC(=O)c3ccccc3)[C@@H]3[C@]4(OC(C)=O)CO[C@@H]4C[C@H](OC(C)=O)[C@@]3(C)[C@H]1OC(C)=O)C2(C)C` are 15 ng/mL, 13 ng/mL, 3.3 ng/mL, 22 ng/mL and 0.91.
The like results for `CO[C@H]1[C@H](OC(C)=O)C2=C(C)[C@@H](OC(=O)[C@H](O)[C@@H](NC(=O)OC(C)(C)C)c3ccccc3)C[C@@](O)([C@@H](OC(=O)c3ccccc3)[C@@H]3[C@]4(OC(C)=O)CO[C@@H]4C[C@H](O)[C@]31C)C2(C)C` were, in that order, 0.1 ng/mL, 0.9 ng/mL, 0.5 ng/mL, 1.3 ng/mL and 0.51.
Take `CC(=O)O[C@@H]1C2=C(C)[C@@H](OC(=O)[C@H](O)[C@@H](NC(=O)c3ccccc3)c3ccccc3)C[C@@](O)([C@@H](OC(=O)c3ccccc3)[C@@H]3[C@]4(OC(C)=O)CO[C@@H]4C[C@@H]4OC(=S)O[C@@H]1[C@]43C)C2(C)C`: the Cytotoxicity is 19 ng/mL in the assay on A549, 20 ng/mL with B16-F10, 11 ng/mL with HT-29 and 35 ng/mL in the assay on P388. The Ratio in assay [1] amounted to 2.78.
On to `CO[C@H]1C[C@H]2OC[C@@]2(OC(C)=O)[C@H]2[C@H](OC(=O)c3ccccc3)[C@]3(O)C[C@H](OC(=O)[C@H](O)[C@@H](NC(=O)OC(C)(C)C)c4ccccc4)C(C)=C([C@@H](OC(C)=O)[C@H](O)[C@]12C)C3(C)C`, for which the Cytotoxicity in the assay on A549 was determined as 0.27 ng/mL; in the assay on B16-F10, 0.2 ng/mL; with HT-29, 0.15 ng/mL; with P388, 0.6 ng/mL. For the same molecule, the Ratio in assay [1] came to 0.35.
The like results for `CC(=O)O[C@@H]1C2=C(C)[C@@H](OC(=O)[C@H](O)[C@@H](NC(=O)c3ccccc3)c3ccccc3)C[C@@](O)([C@@H](OC(=O)c3ccccc3)[C@@H]3[C@]4(O)CO[C@@H]4C[C@H](O)[C@@]3(C)[C@H]1O)C2(C)C` were, in that order, greater than 1000 ng/mL, greater than 1000 ng/mL, greater than 1000 ng/mL, greater than 1000 ng/mL and greater than 10.
`CO[C@H]1C[C@H]2OC[C@@]2(OC(C)=O)[C@H]2[C@H](OC(=O)c3ccccc3)[C@]3(O)C[C@H](OC(=O)[C@H](O)[C@@H](NC(=O)c4ccccc4)c4ccccc4)C(C)=C([C@@H](OC(C)=O)[C@H](O)[C@]12C)C3(C)C`: the Cytotoxicity in the assay on A549 worked out at 1.2 ng/mL; in the assay with B16-F10, 1.5 ng/mL; in the assay with HT-29, 1.4 ng/mL; in the assay with P388, 3.9 ng/mL. In addition, in assay [1], the Ratio was 0.92.
For the molecule `CC(=O)O[C@@H]1C2=C(C)[C@@H](OC(=O)[C@H](O)[C@@H](NC(=O)c3ccccc3)c3ccccc3)C[C@@](O)([C@@H](OC(=O)c3ccccc3)[C@@H]3[C@]4(OC(C)=O)CO[C@@H]4C[C@H](O)[C@@]3(C)[C@H]1O)C2(C)C` (stereo in doubt; 14a) [listing 1 of 2 here], the Ratio in assay [1] was found to be 0.83.
`CCC1O[C@H]2C[C@H]3OC[C@@]3(OC(C)=O)[C@H]3[C@H](OC(=O)c4ccccc4)[C@]4(O)C[C@H](OC(=O)[C@H](O)[C@@H](NC(=O)c5ccccc5)c5ccccc5)C(C)=C([C@@H](OC(C)=O)[C@H](O1)[C@]23C)C4(C)C` (some centres undefined): the Cytotoxicity in the assay with A549 came to 23 ng/mL; with B16-F10 it was 15 ng/mL; in the assay on HT-29, 16 ng/mL; with P388 it was 22 ng/mL.
With `CC(=O)O[C@@H]1C2=C(C)[C@@H](OC(=O)[C@H](O)[C@@H](NC(=O)c3ccccc3)c3ccccc3)C[C@@](O)([C@@H](OC(=O)c3ccccc3)[C@@H]3[C@]4(OC(C)=O)CO[C@@H]4C[C@H](O)[C@@]3(C)[C@H]1O)C2(C)C` (stereo in doubt; 2) [listing 2 of 2 here], in assay [1], the Ratio was found to be 0.75.
Regarding `CC(=O)O[C@@H]1C2=C(C)[C@@H](OC(=O)[C@H](O)[C@@H](NC(=O)c3ccccc3)c3ccccc3)C[C@@](O)([C@@H](OC(=O)c3ccccc3)[C@@H]3[C@]4(OC(C)=O)CO[C@@H]4C[C@H](O)[C@@]3(C)[C@H]1O)C2(C)C` (stereo in doubt; 14a) [listing 2 of 2 here], the Cytotoxicity came out at 11 ng/mL with A549, 39 ng/mL in the assay with B16-F10, 1.9 ng/mL in the assay on HT-29 and 140 ng/mL in the assay with P388.
As for `CC(=O)O[C@@]12CO[C@@H]1C[C@H](O)[C@]1(C)[C@@H]2[C@H](OC(=O)c2ccccc2)[C@]2(O)C[C@H](OC(=O)[C@H](O)[C@@H](NC(=O)OC(C)(C)C)c3ccccc3)C(C)=C([C@@H](O)[C@@H]1O)C2(C)C`, the Cytotoxicity was 0.26 ng/mL in the assay with A549, 0.4 ng/mL in the assay on B16-F10, 0.65 ng/mL in the assay with HT-29 and 2.8 ng/mL in the assay on P388. In addition, the Ratio in assay [1] was 1.31.
The like results for `CC(=O)O[C@@H]1C2=C(C)[C@@H](OC(=O)[C@H](O)[C@@H](NC(=O)c3ccccc3)c3ccccc3)C[C@@](O)([C@@H](OC(=O)c3ccccc3)[C@@H]3[C@]4(OC(C)=O)CO[C@@H]4C[C@H](OCC(O)CO)[C@@]3(C)[C@H]1O)C2(C)C` (some centres undefined) were, in that order, 626 ng/mL, greater than 1000 ng/mL, 310 ng/mL, greater than 1000 ng/mL and 2.02.

Source of the values: ChEMBL document CHEMBL1128309, “Antitumor activity of 9(R)-dihydrotaxane analogs” (1995).
